According to patent US7579374B2, “Agent for improving bone metabolism” (The Nisshin OilliO Group, Ltd., priority 2001, dated 2009):

Experiments:
Format in all cases: cell-based, mice
[1] = system: osteoclasts; experiment: Bone absorption-inhibitory action in cell co-cultivation system (TRACP activity); parameters: key to Judged Efficacy (TRACP, t-test relative to the control): ⊚: The test substance shows a considerable inhibitory effect (p < 0.01); ◯: The test substance shows an inhibitory effect (p < 0.05); Δ: The test substance shows only slight or no inhibitory effect (there is not observed any significant difference); X: The test substance shows a bone absorption-promoting effect (there is observed a negativesignificant difference); settings: 10 μM test substance; for Judged Efficacy (TRACP, t-test relative to the control): 2 weeks; for TRACP Act.: co-culture 2 weeks with 10 nM Calcitriol and 100 nM Dexamethasone, control 102.8 ± 12.6
From the text: The cell co-culture system used herein means a system in which osteoblasts and hematopoietic cells are subjected to co-culture in the presence of a factor for promoting the formation of osteoclasts and which thus easily permits the analysis of the differentiation process of the osteoclasts (Endocrinology, 1988, 123: 2600-2602). In such a system, osteoclasts are formed and therefore, the degree of osteoclast-formation can be evaluated by the determination of a tartaric acid-resistant acid phosphatase (TRACP) activity in the cell layer as the parameter indicative of the osteoclast.
The test for the confirmation of the bone absorption-inhibitory action of the isoprenoid ester was carried out according to the method disclosed in the literature (Endocrinology, 1988, 123: 2600). The method will be outlined below:
Stroma cells collected from the skull-caps of two-week-old mice according to the method disclosed in the literature (Endocrinology, 1988, 123: 2600) were dispersed in a 10% fetal bovine serum-containing culture base liquid (α-MEM; available from Gibco Company) to a cell density of 5×10^4 cells/mL.
Spleen cells collected from the spleen of 6-week-old ddy male mice according to the method disclosed in the literature (Proc. Natl. Acad. Sci. USA, 1983, 80: 5583) were dispersed in a 10% fetal bovine serum-containing culture base liquid (α-MEM; available from Gibco Company) to a cell density of 5×10^5 cells/mL.
The co-cultivation was carried out in a 5% CO2-containing atmosphere at a temperature of 37° C. using a 10% FBS (fetal bovine serum)-containing culture base liquid (α-MEM; available from Gibco Company). Osteoblast cells were inoculated on a 24-well petri dish at a cell density of 5×10^4 cells/mL/well, spleen cells were then inoculated thereon at a cell density of 5×10^5 cells/mL/well after one day and a solution of a test substance, which had been dissolved in DMSO in a concentration of 10^-2M, was then added to each well in such a manner that the concentration of the test substance was equal to 10 μM. These cells were cultivated in the presence of 10 nM Calcitriol and 100 nM Dexamethasone over 2 weeks while defining the day on which the spleen cells were inoculated as 0th day. In this respect, the culture medium was replaced with fresh one twice a week. After two weeks, the activity of the tartrate-resistant acid phosphatase (hereunder referred to as “TRACP”) in the cell layer was determined, which served as a parameter indicating the number of osteoclasts in the layer.
In the determination of the TRACP activity, there was used a kit of acid phosphatase KII-WAKO (available from WAKO Pure Chemical Co., Ltd.). The culture medium was removed from the Petri dish, 500 μL each of a substrate was added to each well, the resulting cell suspension was heated at 37° C. for 15 minutes, followed by the addition of 500 μL each of a color developing liquid and the determination of the absorbance at a wavelength of 570 nm. The TRACP activity corresponding to each absorbance thus measured was determined using a calibration curve prepared in advance.

[2] = system: MC3T3-E1 cells; experiment: Alkaline phosphatase (ALP) activity of osteoblasts in cell culture system; parameters: key to Judged Efficacy (ALP, t-test relative to the control): ⊚: The test substance shows a considerable inhibitory effect (p < 0.01); ◯: The test substance shows an inhibitory effect (p < 0.05); Δ: The test substance shows only slight or no inhibitory effect (there is not observed any significant difference); X: The test substance shows a bone absorption-promoting effect (there is observed a negativesignificant difference); settings: 2.5 μM; for ALP Act.: cultivation over one week, control 71.6 ± 4.6; for Judged Efficacy (ALP, t-test relative to the control): one week
From the text: (§1) In such a system, the osteoblasts are proliferated and the activity of osteoblasts is increased. Therefore, any influence of a substance on the osteoblast-formation can be evaluated by determining, for instance, the rate of cell proliferation and the alkaline phosphatase (ALP) activity as an activity parameter.
(§2) In this Example, there were examined the effects of the chain isoprenoid fatty acid esters on the differentiation and calcium-accumulation of MC3T3-E1 cells or the osteoblasts derived from the skull-caps of mice. A culture medium was added to a 6-well plate in an amount of 2 mL/well, a desired number of MC3T3-E1 cells was inoculated on the medium and the cells were cultivated in a 10% fatal bovine serum-containing base culture liquid (α-MEM, available from Gibco Company) at 37° C. in an atmosphere of 5% CO2. On the day subsequent to the initiation of the cultivation, the culture medium was replaced with the fresh one and simultaneously a solution containing each test sample (the chain isoprenoid fatty acid esters obtained in Preparation Examples 1 to 9) was admixed with and added to the culture medium in an amount of 10 μM for the determination of the cell growth rate and 2.5 μM for the determination of the alkali phosphatase (ALP) activity and the cultivation was continued. The cells for the cell growth rate determination were recovered after 3 days from the initiation of the cultivation and the number of viable cells was counted to determine the cell growth rate. Regarding the other cells, the medium was replaced with fresh one on 5th day of cultivation, the test sample-containing solution was again added and the alkali phosphatase (ALP) activity was determined after the cultivation over one week.
In these experiments, there was used a kit for Alkaline Phospha K-Test WAKO (available from WAKO Pure Chemical Co., Ltd.). A sample used was a suspension of cells obtained by cultivating the same in the presence of each test substance added. A substrate (150 μL) was added to 10 μL of each sample followed by heating at 37° C. for 15 minutes, the addition of 150 μL of a color-developing liquid and determination of the absorbance at 570 nm. The ALP activity corresponding to each absorbance thus measured was determined using a calibration curve prepared in advance.

[3] = system: MC3T3-E1 cells; experiment: Cell growth rate of osteoblasts in cell culture system; settings: 10 μM; for Cell Growth Rate: viable cells after 3 days, relative to control defined as 100
From the text: as §1, §2
The cell growth rate was calculated as a value relative to the cell growth rate observed for the control (free of any added test sample), which was defined to be 100.

Compound | Judged Efficacy (TRACP, t-test relative to the control) [1] | TRACP Act. [1] [KA-U/well] | ALP Act. [2] [KA-U/well] | Judged Efficacy (ALP, t-test relative to the control) [2] | Cell Growth Rate [3] [%] | Effect on proliferation of osteoblasts (in words) ([3]; compared with the control)
CCC=CCC=CCC=CCC=CCC=CCCCC(=O)OCCC(C)CCCC(C)CCCC(C)CCCC(C)C (centres unmarked) [Dihydrophytyl Eicosapentaenoate] | ◯ (The test substance shows an inhibitory effect (p < 0.05)) | 83.4 ± 9.4 | 118.7 ± 8.9 | ⊚ (The test substance shows a considerable inhibitory effect (p < 0.01)) | 118.9 | –
CCCCC/C=C\C/C=C\C/C=C\CCCCC(=O)OC/C=C(\C)CC/C=C(\C)CC/C=C(\C)CCC=C(C)C [Geranyl-Geranyl γ-Linolenate] | ⊚ (The test substance shows a considerable inhibitory effect (p < 0.01)) | 21.7 ± 4.9 | 84.4 ± 5.1 | ⊚ (The test substance shows a considerable inhibitory effect (p < 0.01)) | 111.4 | –
CCCCCCCC/C=C\CCCCCCCC(=O)OC/C=C(\C)CC/C=C(\C)CC/C=C(\C)CCC=C(C)C [Geranyl-geranyl oleate, Geranyl-Geranyl Oleate] | ⊚ (The test substance shows a considerable inhibitory effect (p < 0.01)) | 16.8 ± 3.4 | 82.8 ± 6.7 | ◯ (The test substance shows an inhibitory effect (p < 0.05)) | 108.3 | –
CCCCCCCCCCCCCCCCCC(=O)OC/C=C(\C)CC/C=C(\C)CC/C=C(\C)CCC=C(C)C [Geranyl-geranyl stearate, Geranyl-Geranyl Stearate] | ⊚ (The test substance shows a considerable inhibitory effect (p < 0.01)) | 25.3 ± 5.2 | 80.1 ± 5.2 | ◯ (The test substance shows an inhibitory effect (p < 0.05)) | 102.9 | –
CC1=C(C/C=C(\C)CCC[C@H](C)CCC[C@H](C)CCCC(C)C)C(=O)c2ccccc2C1=O [Vitamin K1, reference compound] | ◯ (The test substance shows an inhibitory effect (p < 0.05)) | 88.5 ± 8.1 | 76.1 ± 4.9 | Δ | 69.3 | –
CC(C)=CCC/C(C)=C/CC/C(C)=C/CC/C(C)=C/CC1=C(C)C(=O)c2ccccc2C1=O [Vitamin K2 (MK-4), reference compound] | ⊚ (The test substance shows a considerable inhibitory effect (p < 0.01)) | 20.3 ± 4.1 | 78.6 ± 3.2 | ◯ (The test substance shows an inhibitory effect (p < 0.05)) | 32.4 | reduces the rate of cell proliferation
CC1=CC(=O)c2ccccc2C1=O [Vitamin K3, reference compound] | ◯ (The test substance shows an inhibitory effect (p < 0.05)) | 87.9 ± 10.2 | 91.2 ± 11.0 | ◯ (The test substance shows an inhibitory effect (p < 0.05)) | 0.0 | –
Farnesyl Eicosapentaenoate | Δ | 96.9 ± 12.7 | 85.4 ± 8.4 | ◯ (The test substance shows an inhibitory effect (p < 0.05)) | 115.6 | –
Geranyl Eicosapentaenoate | Δ | 87.4 ± 10.3 | 87.2 ± 10.6 | ◯ (The test substance shows an inhibitory effect (p < 0.05)) | 121.4 | –
Geranyl-Geranyl Conjugated Linoleate | – | – | 88.3 ± 4.8 | ⊚ (The test substance shows a considerable inhibitory effect (p < 0.01)) | 120.1 | –
Geranyl-Geranyl Docosahexaenoate | ⊚ (The test substance shows a considerable inhibitory effect (p < 0.01)) | 18.5 ± 5.8 | 89.8 ± 6.1 | ⊚ (The test substance shows a considerable inhibitory effect (p < 0.01)) | 104.8 | –
Phytyl Eicosapentaenoate | ◯ (The test substance shows an inhibitory effect (p < 0.05)) | 84.2 ± 7.1 | 114.6 ± 7.7 | ⊚ (The test substance shows a considerable inhibitory effect (p < 0.01)) | 123.4 | –
